Data taken from the Kinase Knowledgebase extract (Sharma et al. 2016).

Assays:
[1] = target: EGFR (human) (UniProt P00533)
[2] = target: EGFR (human) (UniProt P00533); settings: kb

EGFR (human), sequence (P00533 whole entry, looked up): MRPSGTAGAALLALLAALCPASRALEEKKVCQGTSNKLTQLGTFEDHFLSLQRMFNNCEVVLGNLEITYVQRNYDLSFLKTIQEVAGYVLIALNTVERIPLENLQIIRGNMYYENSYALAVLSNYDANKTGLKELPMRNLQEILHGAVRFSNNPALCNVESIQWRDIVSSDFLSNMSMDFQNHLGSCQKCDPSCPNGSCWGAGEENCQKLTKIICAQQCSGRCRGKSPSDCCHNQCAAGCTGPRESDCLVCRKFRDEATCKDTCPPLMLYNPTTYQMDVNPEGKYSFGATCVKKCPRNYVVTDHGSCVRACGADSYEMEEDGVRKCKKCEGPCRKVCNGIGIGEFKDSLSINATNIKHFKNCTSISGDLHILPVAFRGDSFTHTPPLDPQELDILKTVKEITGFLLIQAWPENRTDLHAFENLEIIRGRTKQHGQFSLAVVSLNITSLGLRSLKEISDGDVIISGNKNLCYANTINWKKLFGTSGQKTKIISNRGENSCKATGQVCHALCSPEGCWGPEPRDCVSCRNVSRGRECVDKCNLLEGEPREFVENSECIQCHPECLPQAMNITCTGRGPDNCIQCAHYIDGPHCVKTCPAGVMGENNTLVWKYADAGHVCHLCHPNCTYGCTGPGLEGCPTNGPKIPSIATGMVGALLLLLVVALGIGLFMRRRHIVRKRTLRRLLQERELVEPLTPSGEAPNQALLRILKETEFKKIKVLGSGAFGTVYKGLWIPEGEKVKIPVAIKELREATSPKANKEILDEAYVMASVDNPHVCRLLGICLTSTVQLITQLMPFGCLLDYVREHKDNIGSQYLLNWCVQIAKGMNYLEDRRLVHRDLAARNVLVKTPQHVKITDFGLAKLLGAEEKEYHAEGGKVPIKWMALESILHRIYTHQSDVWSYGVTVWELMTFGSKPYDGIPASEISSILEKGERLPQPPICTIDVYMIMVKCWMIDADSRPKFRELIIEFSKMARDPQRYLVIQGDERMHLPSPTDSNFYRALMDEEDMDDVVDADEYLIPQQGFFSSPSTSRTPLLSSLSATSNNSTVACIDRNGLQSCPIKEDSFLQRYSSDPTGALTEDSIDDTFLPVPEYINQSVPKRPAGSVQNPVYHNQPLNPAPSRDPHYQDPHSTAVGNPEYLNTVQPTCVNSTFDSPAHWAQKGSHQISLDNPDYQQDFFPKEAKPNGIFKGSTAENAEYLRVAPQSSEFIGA

SMILES	IC50 [1] [nM]	IC50 [2] [nM]
COc1cc2ncnc(Nc3cccc(Cl)c3F)c2cc1OC1CCN(C(=O)Nc2c(C)noc2C)CC1	–	17
COc1cc2ncnc(Nc3cccc(Cl)c3F)c2cc1OC1CCN(C(=O)c2ccccn2)CC1	–	16
COc1cc2c(Nc3cccc(Cl)c3F)ncnc2cc1OC1CCN(C(=O)c2cccnc2)CC1	–	87
COc1cc2c(Nc3cccc(Cl)c3F)ncnc2cc1OC1CCN(C(=O)Cc2cc(C)no2)CC1	–	47

Further lines, results first:

IC50 [1] [nM]	IC50 [2] [nM]	SMILES
0.012	0.063	COc1cc2ncnc(Nc3cccc(Cl)c3F)c2cc1O[C@@H]1C[C@@H](C(=O)NCCC#N)N(C)C1
–	30	COc1cc2ncnc(Nc3cccc(Cl)c3F)c2cc1O[C@@H]1CCCN(C(=O)Cc2cccs2)C1
–	17	COc1cc2ncnc(Nc3cccc(Cl)c3F)c2cc1OC1CCN(C(=O)c2ccno2)CC1
0.008	0.144	COc1cc2ncnc(Nc3cccc(Cl)c3F)c2cc1O[C@H]1C[C@H](C(=O)NCCNC(C)=O)N(C)C1
0.01	0.139	COc1cc2ncnc(Nc3cccc(Cl)c3F)c2cc1O[C@H]1C[C@H](C(=O)N[C@H]2COC[C@@H]2O)N(C)C1
